Measurements as given in paper PMC6222691, “Isoxazolidine Conjugates of N3-Substituted 6-Bromoquinazolinones—Synthesis, Anti-Varizella-Zoster Virus, and Anti-Cytomegalovirus Activity” (Molecules : A Journal of Synthetic Chemistry and Natural …, 2018).
Values after ≈ are worked out from the molar mass of the structure shown. Where two headings read alike, the source gives them in different places.

Assays:
[1] = test system: herpes simplex virus 2 (HSV-2); set-up: method as in PMID 21969760; conditions: cited from earlier work
vaccinia virus (VACV) = conditions: cited from earlier work
[2] = test system: herpes simplex virus 1 (HSV-1); set-up: method as in PMID 21969760; conditions: cited from earlier work
[3] = test system: a wide variety of DNA and RNA viruses; test: Antiviral screening against a wide variety of DNA and RNA viruses; assay type: cell-based
[4] = test system: human cytomegalovirus AD-169 Strain; test: Antiviral activity against human cytomegalovirus AD-169 strain in HEL cell cultures; assay type: cell-based
TK+ VZV Strain (OKA) = test: microbe, parasite or virus in culture; assay type: cell-based, varicella-zoster virus; conditions: Human alphaherpesvirus 3, HEL, read-out: Antiviral Activity EC50 TK+ VZV Strain (OKA)
[5] = test system: human cytomegalovirus Davis Strain; test: Antiviral activity against human cytomegalovirus Davis strain in HEL cell cultures; assay type: cell-based
HEL cells = conditions: minimum cytotoxic concentration
TK− VZV Strain (07-1) = test: microbe, parasite or virus in culture; assay type: cell-based, varicella-zoster virus; conditions: Human alphaherpesvirus 3, HEL, read-out: Antiviral Activity EC50 TK− VZV Strain (07-1)
[6] = test system: L1210, CEM, HeLa, HMEC-1 cell lines; test: Cytostatic activity against the tested cell lines; assay type: cell-based
human T-lymphocyte (CEM) = test: Inhibition of proliferation of human T-lymphocyte CEM cells; assay type: cell-based; conditions: 72 h, read-out: IC50 CEM
[7] = test system: human cervix carcinoma (HeLa); test: Inhibition of proliferation of human cervix carcinoma HeLa cells; assay type: cell-based; conditions: 96 h, read-out: IC50 HeLa
murine leukemia (L1210) = test: Inhibition of proliferation of murine leukemia L1210 cells; assay type: cell-based; conditions: Mus musculus, L1210, 48 h, read-out: IC50 L1210
influenza A virus (H5N1) = conditions: cited from earlier work
[8] = test system: immortalized human dermal microvascular endothelial cells (HMEC-1); test: Inhibition of proliferation of HMEC-1 cells; assay type: cell-based; conditions: HMEC-1, read-out: IC50 HMEC-1
PI4KIIIα = test system: PI4KIIIα; set-up: method as in PMID 23944386; conditions: cited from earlier work
[9] = test system: human cytomegalovirus (HCMV); test: Antiviral activity against HCMV, AD-169 and Davis strains (text summaries); assay type: cell-based; conditions: Human betaherpesvirus 5, AD169; HEL cells; both AD-169 and Davis strains; read-out: EC50 against HCMV (range over AD-169 and Davis strains)
in vitro = conditions: human
vaccinia virus = conditions: E6SM cell cultures; cited from earlier work
[10] = test system: tobacco mosaic virus (TMV); set-up: method as in PMID 18259148; conditions: in vivo; cited from earlier work
[11] = Human betaherpesvirus 5, AD169, HEL; read-out: Antiviral Activity EC50 AD-169 Strain
[12] = Human betaherpesvirus 5, HEL; read-out: Antiviral Activity EC50 Davis Strain

## O=C(O)c1cc(Br)ccc1-n1c(-c2ccccc2)nc2ccc(Br)cc2c1=O [compound 1, 5-bromo-2-(6-bromo-4-oxo-2-phenyl-4H-quinazolin-3-yl)-benzoic acid]
[1]
  EC50 HSV-2: 12 µg/mL (≈ 24 µM)
Vaccinia virus (VACV)
  EC50 vaccinia virus (VACV): 12 µg/mL (≈ 24 µM)
[2]
  EC50 HSV-1: 12 µg/mL (≈ 24 µM)

## CCOP(=O)(OCC)[C@H]1C[C@H](c2nc3ccc(Br)cc3c(=O)n2CC)ON1C (relative stereo) [trans-11k, Diethyl trans-{5-[6-bromo-3-ethyl-4-oxo-3,4-dihydroquinazolin-2-yl]-2-methylisoxazolidin-3-yl}phosphonate]
[3]
  Activity against tested viruses (in words): not active
[4]; [11]
  EC50: > 20 µM
TK+ VZV Strain (OKA)
  EC50: > 20 µM
[5]; [12]
  EC50: 44.7 µM
HEL cells; Table 2 (VZV experiments)
  Cytotoxicity Cell Morphology MCC: 100 μM
HEL cells; Table 3 (HCMV experiments)
  Cytotoxicity Cell Morphology MCC: 20 μM
TK− VZV Strain (07-1)
  EC50: > 20 µM
[6]
  Inhibition of proliferation of the tested cell lines (in words): did not inhibit proliferation

## O=c1[nH]cc(F)c(=O)[nH]1 [5-Fluorouracil, reference compound]
Human T-lymphocyte (CEM); cell proliferation, three days
  IC50: 18 ± 5 µM
[7]; cell proliferation, four days
  IC50: 0.54 ± 0.12 µM
Murine leukemia (L1210); cell proliferation, two days
  IC50: 0.33 ± 0.17 µM

## CCNC(=S)N/N=C/c1nc2ccc(I)cc2c(=O)n1-c1cccc(C(F)(F)F)c1 [compound 5]
Influenza A virus (H5N1)
  inhibition rate against H5N1: 47%

## CCOP(=O)(OCC)[C@H]1C[C@H](c2nc3ccc(Br)cc3c(=O)[nH]2)ON1C (relative stereo) [trans-11a, Diethyl trans-[5-(6-bromo-4-oxo-3,4-dihydroquinazolin-2-yl)-2-methylisoxazolidin-3-yl]phosphonate]
[3]
  Activity against tested viruses (in words): not active
Human T-lymphocyte (CEM)
  IC50: 148 ± 2 µM
[4]; [11]
  EC50: > 100 µM
[7]
  IC50: 196 ± 20 µM
TK+ VZV Strain (OKA)
  EC50: > 100 µM
Murine leukemia (L1210)
  IC50: 126 ± 19 µM
[5]; [12]
  EC50: > 100 µM
[8]
  IC50: 85 ± 13 µM
HEL cells; Table 2 (VZV experiments)
  Cytotoxicity Cell Morphology MCC: >100 μM
HEL cells; Table 3 (HCMV experiments)
  Cytotoxicity Cell Morphology MCC: 100 μM
TK− VZV Strain (07-1)
  EC50: 66.9 µM
[6]
  Inhibition of proliferation of the tested cell lines (in words): did not inhibit proliferation

## CCOP(=O)(OCC)[C@H]1C[C@H](c2nc3ccc(Br)cc3c(=O)n2Cc2ccc([N+](=O)[O-])cc2)ON1C (relative stereo) [trans-11e, Diethyl trans-{5-[6-bromo-3-(4-nitrobenzyl)-4-oxo-3,4-dihydroquinazolin-2-yl]-2-methylisoxazolidin-3-yl}phosphonate]
Human T-lymphocyte (CEM)
  IC50: 17 ± 12 µM
[4]; [11]
  EC50: > 20 µM
[7]
  IC50: 24 ± 9 µM
TK+ VZV Strain (OKA)
  EC50: 6.84 µM
Murine leukemia (L1210)
  IC50: 18 µM
[5]; [12]
  EC50: > 20 µM
[8]
  IC50: 26 ± 6 µM
HEL cells; Table 2 (VZV experiments)
  Cytotoxicity Cell Morphology MCC: 20 μM
HEL cells; Table 3 (HCMV experiments)
  Cytotoxicity Cell Morphology MCC: 100 μM
TK− VZV Strain (07-1)
  EC50: 7.51 µM

## O=C(N/N=C/c1nc2ccc(I)cc2c(=O)n1-c1cccc(C(F)(F)F)c1)c1ccncc1 [compound 6]
Influenza A virus (H5N1)
  inhibition rate against H5N1: 25%

## COc1ncc(-c2ccc3nc(N)n(-c4ccccc4C(F)(F)F)c(=O)c3c2)cc1S(=O)(=O)Nc1ccc(F)cc1F (atropisomer, axis not shown; (aS)) [(aS)-9]
PI4KIIIα
  pIC50 PI4KIIIα: 8.3

## CCOP(=O)(OCC)[C@H]1C[C@H](c2nc3ccc(Br)cc3c(=O)n2C)ON1C (relative stereo) [trans-11j, Diethyl trans-{5-[6-bromo-3-methyl-4-oxo-3,4-dihydroquinazolin-2-yl]-2-methylisoxazolidin-3-yl}phosphonate]
[3]
  Activity against tested viruses (in words): not active
Human T-lymphocyte (CEM)
  IC50: 128 ± 21 µM
[4]; [11]
  EC50: > 20 µM
[7]
  IC50: 175 ± 105 µM
TK+ VZV Strain (OKA)
  EC50: > 4 µM
Murine leukemia (L1210)
  IC50: 138 ± 19 µM
[5]; [12]
  EC50: > 100 µM
[8]
  IC50: > 250 µM
HEL cells; Table 2 (VZV experiments)
  Cytotoxicity Cell Morphology MCC: 20 μM
HEL cells; Table 3 (HCMV experiments)
  Cytotoxicity Cell Morphology MCC: 20 μM
TK− VZV Strain (07-1)
  EC50: > 4 µM
[6]
  Inhibition of proliferation of the tested cell lines (in words): did not inhibit proliferation

## CCOP(=O)(OCC)[C@H]1C[C@@H](c2nc3ccc(Br)cc3c(=O)[nH]2)ON1C (relative stereo) [cis-11a, Diethyl cis-[5-(6-bromo-4-oxo-3,4-dihydroquinazolin-2-yl)-2-methylisoxazolidin-3-yl]phosphonate]
[3]
  Activity against tested viruses (in words): not active
Human T-lymphocyte (CEM)
  IC50: 242 ± 7 µM
[4]; [11]
  EC50: > 100 µM
[7]
  IC50: > 250 µM
TK+ VZV Strain (OKA)
  EC50: > 100 µM
Murine leukemia (L1210)
  IC50: > 250 µM
[5]; [12]
  EC50: 100 µM
[8]
  IC50: 140 ± 54 µM
HEL cells; Table 2 (VZV experiments)
  Cytotoxicity Cell Morphology MCC: >100 μM
HEL cells; Table 3 (HCMV experiments)
  Cytotoxicity Cell Morphology MCC: 20 μM
TK− VZV Strain (07-1)
  EC50: > 100 µM
[6]
  Inhibition of proliferation of the tested cell lines (in words): did not inhibit proliferation

## Nc1ccn(C[C@@H](CO)OCP(=O)(O)O)c(=O)n1 [Cidofovir, reference compound]
[4]; [11]
  EC50: 1.5 ± 0.2 µM
[9]
  EC50: 1.5 to 1.7 µM
[5]; [12]
  EC50: 1.7 ± 0.4 µM
HEL cells; Table 3 (HCMV experiments)
  Cytotoxicity Cell Morphology MCC: >300 μM
In vitro
  CC50: > 300 µM

## Nc1nc(O)c2ncn(COC(CO)CO)c2n1 [Ganciclovir, reference compound]
[4]; Human betaherpesvirus 5, AD169, HEL, read-out: Antiviral Activity EC50 AD-169 Strain
  EC50: 16.9 ± 6.9 µM
[5]; Human betaherpesvirus 5, HEL, read-out: Antiviral Activity EC50 Davis Strain
  EC50: 7.7 ± 0.9 µM
HEL cells; Table 3 (HCMV experiments)
  Cytotoxicity Cell Morphology MCC: >350 μM
In vitro
  CC50: > 350 µM

## CCc1nc(-n2c(-c3ccccc3)nc3ccc(Br)cc3c2=O)nc(N)c1-c1ccc(Cl)cc1 [compound 2]
Vaccinia virus
  MIC vaccinia virus: 1.92 µg/mL (≈ 3.6 µM)

## Cc1ccc(C(=O)/C=C/c2nc3ccc(I)cc3c(=O)n2-c2cccc(C(F)(F)F)c2)cc1 [compound 4]
Influenza A virus (H5N1)
  inhibition rate against H5N1: 38%

## Nc1nc2c(ncn2COCCO)c(=O)[nH]1 [Acyclovir]
In vitro
  CC50: > 350 µM

## Cc1nc2ccc(Br)cc2c(=O)n1/N=C/c1ccccc1C(F)(F)F [compound 3, 2-methyl-3-(substituted-benzalamino)-4(3H)-quinazolinone]
[10]
  curative effects against TMV: 54%

## O=c1[nH]c(=O)n([C@H]2C[C@H](O)[C@@H](CO)O2)cc1/C=C/Br [Brivudin, reference compound]
TK+ VZV Strain (OKA)
  EC50: 0.023 ± 0.008 µM
HEL cells; Table 2 (VZV experiments)
  Cytotoxicity Cell Morphology MCC: >300 μM
TK− VZV Strain (07-1)
  EC50: 31.9 ± 16.1 µM
In vitro
  CC50: > 300 µM
